Results on 6 compounds are retold here after EP0324390A2, “Nigericin derivatives, method for their preparation, compositions containing them and use of these compositions” (priority 1988, dated 1989).

Holding throughout (assay type): cell-based
For one experiment, the system named is Testviren. Nature of the experiment: Antiviral activity in cell culture (CPE, HeLa or Vero cells). The settings on record: cell cultures infected with test viruses; qualitative statement.
A further experiment concerns Staph. aureus (SG 511). As to the kind of experiment: Agar dilution test according to Lorian (antibacterial activity). The method, then: (§1) Die antibakterielle Wirksamkeit der erfindungsgemäßen Verbindungen wurde im Agar-Verdünnungstest nach Lorian (Antibiotics in Laboratory Medicine, Williams & Wilkins, Baltimore/London, 1980) bestimmt. Dabei wurden die Präparate in einer geometrischen Verdünnungsreihe mit dem Faktor 2 in Müller Hinton Agar verdünnt. Eine Petrischale enthielt nur Müller Hinton Agar und diente zur Kontrolle des Bakterienwachstums. Die Petrischalen wurden dann mit einem Denley-Multipoint-Inokulator, welcher 0,6 ul einer 1 : 100 verdünnten 18-Stunden-Kultur der Testbakterien übertrug, mit den entsprechenden Testbakterien beimpft. Nach 16 bis 18 Stunden Inkubation bei 37^. C wurden die Petrischalen makroskopisch auf Bakterienwachstum untersucht.
(§2) Die niedrigste Konzentration der erfindungsgemäßen Verbindungen, welche das Bakterienwachstum noch vollständig verhinderte, wurde als MIC (Minimum Inhibitory Concentration) angenommen.
(§3) In Tabelle 4 ist die Wirkung (Angabe des MIC in µg/ml) von verschiedenen erfindungsgemäßen Verbindungen gegen folgende Bakterien aufgeführt: • Staph. aureus (SG 511), Staph. aureus (285), Staph. aureus (503), Strept. pyogenes (308 A), Strept pyogenes (77 A), Strept. faecium (D).
For orientation: Agar dilution tests growth on a series of plates holding different concentrations.

The next experiment has as its system Strept. faecium (D). The experiment is described as above. As for the experimental part:
as §1, §2, §3

The next experiment relates to Strept. pyogenes (77 A). Described as above. The method, then:
as §1, §2, §3

The subject of the next experiment is Strept. pyogenes (308 A). The experiment is described as above. As for the experimental part:
as §1, §2, §3

The test system of another experiment is Staph. aureus (503). The description is as above. The method, then:
as §1, §2, §3

A further experiment concerns Staph. aureus (285). Described as above. The method, then:
as §1, §2, §3

The next experiment has as its system Entrob. Cloacae (1321 E). Nature of the experiment: Antibacterial activity against gram-negative bacteria. The settings on record: Enterobacter cloacae, read-out: MHK. The method, then: as §1, §2
(§4) Überraschend zeigen die Dicarbonsäure-Addukte des Nigericins auch eine Wirkung gegen gramnegative Bakterien. So besitzt beispielsweise die Substanz aus Beispiel 32 gegen E. coli eine MHK von 0,55 µg/ml, gegen E. coli (DC 2) eine MHK von 25,0 µg/ml und gegen Entrob. Cloacae (1321 E) eine MHK von 250 µg/ml.

The next experiment concerns E. coli (DC 2). The experiment is described as above. Conditions: Escherichia coli, read-out: MHK. As for the experimental part:
as §1, §2, §4

For another experiment, the system named is E. coli. The description is as above. Conditions: Escherichia coli, read-out: MHK. As for the experimental part: as §1, §2, §4
[1] abbreviates: Müller Hinton Agar, 16 to 18 h at 37 C, lowest concentration fully preventing growth.

Values after ≈ are worked out from the molar mass of the structure shown.

As for `CO[C@@H]1C[C@@H](C[C@H]2CC[C@H](C)[C@H]([C@@H](C)C(=O)O)O2)O[C@]2(O[C@](C)([C@H]3CC[C@@](C)([C@@H]4O[C@@H]([C@H]5O[C@@](O)(CO)[C@H](C)C[C@@H]5C)C[C@@H]4C)O3)C[C@H]2C)[C@@H]1C` [Beispiel 1, Nigericin], in the experiment on Testviren, the “antivirale Wirkung” value is listed as “ausgezeichnete antivirale Wirkung”.
Turning to `COC1CC(CC2CCC(C)C(C(C)C(=O)O)O2)OC2(OC(C)(C3CCC(C)(C4OC(C5OC(O)(COC(=O)C=C(C)C(=O)O)C(C)CC5C)CC4C)O3)CC2C)C1C` (centres unmarked) [Beispiel 22], the MIC in the experiment on Staph. aureus (SG 511) (Staphylococcus aureus) stood at 6.25 mg/L (≈ 7.47 µM); with Strept. faecium (D) (Enterococcus faecium), 6.25 mg/L (≈ 7.47 µM); against Strept. pyogenes (77 A) (Streptococcus pyogenes), 0.78 mg/L (≈ 0.932 µM); with Strept. pyogenes (308 A) (Streptococcus pyogenes) it was 0.78 mg/L (≈ 0.932 µM); against Staph. aureus (503) (Staphylococcus aureus), 6.25 mg/L (≈ 7.47 µM); in the experiment with Staph. aureus (285) (Staphylococcus aureus), 6.25 mg/L (≈ 7.47 µM).
With `CCCCCCCCCCCCCCCCCCCCCC(=O)OCC1(O)OC(C2CC(C)C(C3(C)CCC(C4(C)CC(C)C5(OC(CC6CCC(C)C(C(C)C(=O)O)O6)CC(OC)C5C)O4)O3)O2)C(C)CC1C` (centres unmarked) [Beispiel 30], the MIC was 100 mg/L (≈ 95.5 µM) with Staph. aureus (SG 511) (Staphylococcus aureus); 100 mg/L (≈ 95.5 µM) against Strept. faecium (D) (Enterococcus faecium); 25 mg/L (≈ 23.9 µM) in the experiment on Strept. pyogenes (77 A) (Streptococcus pyogenes); 25 mg/L (≈ 23.9 µM) against Strept. pyogenes (308 A) (Streptococcus pyogenes); 50 mg/L (≈ 47.7 µM) in the experiment on Staph. aureus (503) (Staphylococcus aureus); 100 mg/L (≈ 95.5 µM) with Staph. aureus (285) (Staphylococcus aureus).
Turning to `COC1CC(CC2CCC(C)C(C(C)C(=O)O)O2)OC2(OC(C)(C3CCC(C)(C4OC(C5OC(O)(COC(=O)CCCC(=O)O)C(C)CC5C)CC4C)O3)CC2C)C1C` (centres unmarked) [Beispiel 32], the MIC against Staph. aureus (SG 511) (Staphylococcus aureus) was found to be 0.39 mg/L (≈ 0.465 µM); in the experiment with Strept. faecium (D) (Enterococcus faecium), 0.39 mg/L (≈ 0.465 µM); with Staph. aureus (503) (Staphylococcus aureus), 0.39 mg/L (≈ 0.465 µM); against Staph. aureus (285) (Staphylococcus aureus), 0.39 mg/L (≈ 0.465 µM); with Entrob. Cloacae (1321 E) it was 250 mg/L (≈ 298 µM); in the experiment with E. coli (DC 2), 25 mg/L (≈ 29.8 µM). Also, the MIC in the experiment with E. coli was 0.55 mg/L (≈ 0.655 µM).
In the case of `COC1CC(CC2CCC(C)C(C(C)C(=O)[O-])O2)OC2(OC(C)(C3CCC(C)(C4OC(C5OC(O)(CO)C(C)CC5C)CC4C)O3)CC2C)C1C.[K+]` (centres unmarked) [Beispiel 34], the MIC in the experiment on Staph. aureus (SG 511) (setting [1]) is recorded as 0,025 µg/ml; in the experiment with Strept. faecium (D) (setting [1]), 0,098 µg/ml; in the experiment on Strept. pyogenes (77 A) (setting [1]), < 0,002 µg/ml; in the experiment on Strept. pyogenes (308 A) (setting [1]), < 0,002 µg/ml; with Staph. aureus (503) (setting [1]) it was < 0,002 µg/ml; against Staph. aureus (285) (setting [1]) it was 0,025 µg/ml.
Turning to `COC1CC(CC2CCC(C)C(C(C)C(=O)[O-])O2)OC2(OC(C)(C3CCC(C)(C4OC(C5OC(O)(COC(=O)CCC(=O)[O-])C(C)CC5C)CC4C)O3)CC2C)C1C.[Mg+2]` (centres unmarked) [Beispiel 37], the MIC with Staph. aureus (SG 511) (setting [1]) was 0,098 µg/ml; against Strept. faecium (D) (setting [1]), 0,098 µg/ml; against Strept. pyogenes (77 A) (setting [1]) it was 0,007 µg/ml; against Strept. pyogenes (308 A) (setting [1]) it was 0,007 µg/ml; in the experiment with Staph. aureus (503) (setting [1]), 0,049 µg/ml; against Staph. aureus (285) (setting [1]), 0,098 µg/ml.
